Measured values as given in patent publication US6872517B2, “Early diagnosis of cancerous and precancerous conditions by leakage of signature peptides and carbohydrates into the bloodstream” (Lankenau Institute for Medical Research, priority 2000, dated 2005).

What was measured:
DMH-treated colon = test: Barrier function of DMH-treated colon (Rt, 14C-D-mannitol flux, aberrant crypts); format: in vivo, rat
Source text: In addition, however, weekly changes in barrier function of DMH-treated colon were examined, with an emphasis on assessing that function by means of electrophysiology (Rt) and transepithelial flux of ^14C-D-mannitol.

[1] = system: renal epithelial cell line; conditions: cited from earlier work
LLC-PK1 = conditions: cited from earlier work
occludin = conditions: cited from earlier work
rat colon epithelium = test: Increased luminal EGF in rat colon; format: in vivo
Source text: The biological significance here is that luminal fluids of many epithelial tissues contain very high levels of certain growth factors (Barnard et al., 1995; Jorgenson et al., 1990; Nexo et al., 1992; Mroczkowski and Reich, 1993), whereas the receptors for these growth factors are normally found on the abluminal cell surface. (Bishop and Wen, 1994; Muto et al., 1991; Thompson, 1988; Scheving et al., 1989). […] (Mullin, 1997). […] This is a direct consequence of the carcinogen's effect on colonic crypt epithelial TJs as described below.

[2] = as weeks of DMH exposure progressed

CNNC [DMH, dimethylhydrazine]
transepithelial electrical resistance (Rt) (DMH-treated colon; [2]): irregular but significant decline
transepithelial flux of 14C-D-mannitol (DMH-treated colon; [2]): rise
number of aberrant colon crypts (DMH-treated colon; with increasing weeks of DMH exposure): increased in number

CCCCCCCCCCCCCC(=O)O[C@@H]1[C@@H](C)[C@@]2(O)[C@@H](C=C(CO)C[C@]3(O)C(=O)C(C)=C[C@@H]23)[C@@H]2C(C)(C)[C@]12OC(C)=O [TPA]
transepithelial leakiness to salts [1]: capable of causing transepithelial leakiness to salts
transepithelial electrical resistance (Rt) (LLC-PK1; LLC-PK1 cell line): rapid, dose dependent decrease
penetration of tight junctions by ruthenium red (LLC-PK1; TPA-treated cell sheets, not control cultures): able to penetrate
size of molecules the TJs became leaky to (LLC-PK1; TPA-treated cell sheets): ≤ 2 million
crossing of paracellular markers D-mannitol (mw 182) and polyethylene glycol (mw 4000) (LLC-PK1; TPA-treated epithelial cell sheet vs control cell sheet): much more rapidly
morphology after chronic exposure (LLC-PK1; chronic exposure, 4 days or greater): polyp-like, multilayered foci
ZO-1 expression (occludin; immunofluorescence): down regulated
localization of occludin (occludin; immunofluorescence): very little change
threonine phosphorylation state of occludin (occludin; in association with increased TJ permeability): decrease

EGF: Epidermal Growth Factor, a growth factor (NSDSECPLSHDGYCLHDGVCMYIEALDKYACNCVVGYIGERCQYRDLKWWELR; Epidermal growth factor; UniProt P01133 971-1023, looked up)
carcinomas in carcinogen-treated rat colon (rat colon epithelium; colon treated with dimethylhydrazine, luminal EGF increased): greater number and size of carcinomas
effect on normal rat colon epithelium (rat colon epithelium; increased EGF concentration in colonic lumen): does not produce any observed effect
